Results taken from US11407748B2, “Substituted pyrido[1,2-a]pyrimidines and pyrazino[1,2-a]pyrimidines for enhancing AMPA receptor function” (Takeda Pharmaceutical Company Limited, priority 2017, dated 2022).

target: T1, hGluR1 flip (Homo sapiens, UniProt P42261); assay: AMPA receptor function-enhancing activity using calcium influx as index; type: cell-based; details: test compound 30 μM with 3 mM glutamic acid; CHO-K1/GluR1 flip/stargazin-expressing cells; 100% = 3 mM glutamic acid + 300 μM cyclothiazide, 0% = 3 mM glutamic acid alone
T1 construct: expressed in transfected cells; host or cells: CHO-K1
Summary of the method: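 CHO-K1 cells co-expressing human GluR1 flip and stargazin, loaded with Calcium5 dye with 1.25 mM probenecid. Test compound at 30 μM added with 3 mM glutamate; fluorescence followed 3 min. Activity % scaled between glutamate alone (0%) and glutamate plus 300 μM cyclothiazide (100%).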

T1 sequence (P42261 19-906 isoform P42261-2 limits assumed): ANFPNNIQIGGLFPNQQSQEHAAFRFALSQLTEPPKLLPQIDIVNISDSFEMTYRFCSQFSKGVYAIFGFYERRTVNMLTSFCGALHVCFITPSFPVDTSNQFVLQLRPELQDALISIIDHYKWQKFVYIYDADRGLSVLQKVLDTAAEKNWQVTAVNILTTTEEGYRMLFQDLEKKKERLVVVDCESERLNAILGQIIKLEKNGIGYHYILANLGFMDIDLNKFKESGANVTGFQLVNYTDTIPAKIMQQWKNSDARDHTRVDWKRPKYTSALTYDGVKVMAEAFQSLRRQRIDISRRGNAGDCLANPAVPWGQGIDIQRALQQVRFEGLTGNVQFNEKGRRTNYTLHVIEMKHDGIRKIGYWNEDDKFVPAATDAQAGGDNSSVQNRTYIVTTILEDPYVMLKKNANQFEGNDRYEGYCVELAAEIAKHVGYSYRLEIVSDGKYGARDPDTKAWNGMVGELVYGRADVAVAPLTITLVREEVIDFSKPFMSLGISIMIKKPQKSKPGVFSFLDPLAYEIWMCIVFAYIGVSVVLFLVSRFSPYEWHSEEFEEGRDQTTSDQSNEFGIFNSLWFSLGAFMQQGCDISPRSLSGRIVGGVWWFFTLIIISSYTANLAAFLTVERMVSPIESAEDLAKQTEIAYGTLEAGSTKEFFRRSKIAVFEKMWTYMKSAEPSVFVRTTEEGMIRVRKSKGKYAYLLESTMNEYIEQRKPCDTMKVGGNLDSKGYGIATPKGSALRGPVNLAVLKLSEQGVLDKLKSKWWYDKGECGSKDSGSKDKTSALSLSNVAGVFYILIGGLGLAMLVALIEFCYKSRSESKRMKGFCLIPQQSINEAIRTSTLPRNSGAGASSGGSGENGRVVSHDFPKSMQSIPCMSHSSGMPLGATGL
T1 sequence (Q9Y698 whole entry partner): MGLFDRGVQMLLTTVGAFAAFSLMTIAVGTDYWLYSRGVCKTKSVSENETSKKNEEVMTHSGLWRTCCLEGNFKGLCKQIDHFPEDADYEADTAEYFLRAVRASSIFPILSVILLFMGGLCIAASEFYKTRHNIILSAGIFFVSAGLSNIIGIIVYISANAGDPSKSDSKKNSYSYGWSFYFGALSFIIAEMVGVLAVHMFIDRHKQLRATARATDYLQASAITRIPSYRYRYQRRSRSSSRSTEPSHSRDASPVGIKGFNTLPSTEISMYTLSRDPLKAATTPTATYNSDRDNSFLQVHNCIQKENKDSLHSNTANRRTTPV

activation at 30 µM [%] | hGluR1 flip/30 μM (%) | Structure (SMILES)
83.2 |  | O=C(NC1CCOCC1)c1ccc(-c2cccn3c(=O)cc(C(F)(F)F)nc23)cc1 [Example 123, 4-(4-oxo-2-(trifluoromethyl)-4H-pyrido[1,2-a]pyrimidin-9-yl)-N-(tetrahydro-2H-pyran-4-yl)benzamide]
86.3 |  | O=C(NC1CCOCC1)c1ccc(-c2cccn3c(=O)c(Br)c(C(F)(F)F)nc23)cc1F [Example 124, 4-(3-bromo-4-oxo-2-(trifluoromethyl)-4H-pyrido[1,2-a]pyrimidin-9-yl)-2-fluoro-N-(tetrahydro-2H-pyran-4-yl)benzamide]
86.7 |  | Cc1c(C(F)(F)F)nc2c(-c3ccc(C(=O)NC4CCOCC4)cc3)cccn2c1=O [Example 125, 4-(3-methyl-4-oxo-2-(trifluoromethyl)-4H-pyrido[1,2-a]pyrimidin-9-yl)-N-(tetrahydro-2H-pyran-4-yl)benzamide]
74.7 |  | O=C(c1ccc(-c2cccn3c(=O)c(Br)c(C(F)(F)F)nc23)cc1)N1CCOC2CC21 (stereo not shown) [Example 127, 3-bromo-9-(4-(2-oxa-5-azabicyclo[4.1.0]hept-5-ylcarbonyl)phenyl)-2-(trifluoromethyl)-4H-pyrido[1,2-a]pyrimidin-4-one]
 | 70.9 | O=C(c1ccc(-c2cccn3c(=O)c(Br)c(C(F)(F)F)nc23)cc1)N1CCOC2CC21 (stereo not shown) [Example 128, 3-bromo-9-(4-(2-oxa-5 azabicyclo[4.1.0]hept-5-ylcarbonyl)phenyl)-2-(trifluoromethyl)-4H-pyrido[1,2-a]pyrimidin-4-one]
80.4 |  | Cc1c(C(F)(F)F)nc2c(-c3ccc(C(=O)N4CC(F)(F)C4)c(F)c3)cccn2c1=O [Example 129, 9-(4-((3,3-difluoroazetidin-1-yl)carbonyl)-3-fluorophenyl)-3-methyl-2-(trifluoromethyl)-4H-pyrido[1,2-a]pyrimidin-4-one]
96 |  | O=C(c1ccc(-c2cccn3c(=O)c(Br)c(C(F)(F)F)nc23)cc1F)N1CC(F)(F)C1 [Example 130, 3-bromo-9-(4-((3,3-difluoroazetidin-1-yl)carbonyl)-3-fluorophenyl)-2-(trifluoromethyl)-4H-pyrido[1,2-a]pyrimidin-4-one]

The next lines start with the molecule.

Structure (SMILES) | activation at 30 µM [%] | hGluR1 flip/30 μM (%)
Cc1c(C(F)(F)F)nc2c(-c3ccc(C(=O)N[C@H]4CCCOC4)c(F)c3)cccn2c1=O [Example 115, 2-fluoro-4-(3-methyl-4-oxo-2-(trifluoromethyl)-4H-pyrido[1,2-a]pyrimidin-9-yl)-N-((3S)-tetrahydro-2H-pyran-3-yl)benzamide] | 87.9 | 
CN(CC1(C#N)CC1)C(=O)c1ccc(-c2cccn3c(=O)c(Br)c(C(F)(F)F)nc23)cc1 [Example 118, 4-(3-bromo-4-oxo-2-(trifluoromethyl)-4H-pyrido[1,2-a]pyrimidin-9-yl)-N-((1-cyanocyclopropyl)methyl)-N-methylbenzamide] | 84 | 
O=C(c1ccc(-c2cccn3c(=O)c(Br)c(C(F)(F)F)nc23)cc1)N1CCOCC(F)(F)C1 [Example 119, 3-bromo-9-(4-((6,6-difluoro-1,4-oxazepan-4-yl)carbonyl)phenyl)-2-(trifluoromethyl)-4H-pyrido[1,2-a]pyrimidin-4-one] | 71 | 
N#CC1CCN(C(=O)c2ccc(-c3cccn4c(=O)c(Br)c(C(F)(F)F)nc34)cc2)C1 (stereo not shown) [Example 120, 1-(4-(3-bromo-4-oxo-2-(trifluoromethyl)-4H-pyrido[1,2-a]pyrimidin-9-yl)benzoyl)pyrrolidine-3-carbonitrile] | 71.5 | 
Cc1c(C(F)(F)F)nc2c(-c3ccc(C(=O)N4CCC(C#N)C4)cc3)cccn2c1=O (stereo not shown) [Example 121, 1-(4-(3-methyl-4-oxo-2-(trifluoromethyl)-4H-pyrido[1,2-a]pyrimidin-9-yl)benzoyl)pyrrolidine-3-carbonitrile] | 84.4 | 
O=C(N[C@H]1CCCOC1)c1ccc(-c2cccn3c(=O)cc(C(F)(F)F)nc23)cc1 [Example 122, 4-(4-oxo-2-(trifluoromethyl)-4H-pyrido[1,2-a]pyrimidin-9-yl)-N-((3S)-tetrahydro-2H-pyran-3-yl)benzamide] | 71.4 | 
